Source: patent US7820439B2, “In vitro generation of GABAergic neurons from pluripotent stem cells” (Reliance Life Sciences PVT Ltd., priority 2003, dated 2010)

System: neuronal progenitor cells derived from murine ES cells
Experiment: Differentiation of neuronal progenitor cells into GABAergic neurons in differentiation media containing Ara-C
Assay type: cell-based
Procedure: The expanded neuronal progenitor cells were differentiated by culturing the cells in a differentiation media containing Neurobasal A medium (Gibco), FCS (10-20%) (HYCLONE), and B27 supplement (2-10%) (Gibco), but no β-FGF. Additionally, the differentiation media contained factors to enhance GABAergic neuron yield, preferably Ara-C (Sigma Chemical Co. USA). […] After 3 days of culture in the differentiation media containing Ara-C, the cells were grown in the same media without Ara-C for 8, 12, or 16 days. When the neuronal progenitor cells were cultured in differentiation media containing Ara-C for 3 days, and the cells were then grown in differentiation media without Ara-C for 16 days, at least about 60% of the neuronal progenitor cells differentiated into GABAergic neurons (FIG. 6).
The differentiated neuronal cell types generated according to the present disclosure were evaluated both by the overall morphology of the cells, as well as the phenotypes identified by immunoflourescence. […]
The cells were then incubated overnight at 4° C. with a primary antibody (antibody dilution was made in 1% BSA). […] The chamber slides were observed under fluorescence microscope to evaluate the immunopositive cells in the different stages of differentiation. […]

cytosine β-d-Arabino furanoside [Ara-C]
percentage of GABAergic neurons in the neuronal population derived from murine ES cells (Ara-C 20 ug/ml in differentiation media): increased the percentage of GABAergic neurons | neuronal progenitor cells differentiated into GABAergic neurons (differentiation media containing Ara-C for 3 days, then without Ara-C for 16 days (FIG. 6)): at least 60%
